Three compounds from PMC4503722, “Novel Phenotypic Outcomes Identified for a Public Collection of Approved Drugs from a Publicly Accessible Panel of Assays” (PLoS ONE, 2015) can be followed below.

In test [1] the test system is endothelial tube formation in co-cultures of ECFCs and ADSCs treated with VEGF. Put plainly: cells. It is filed as cell-based, human.
The test system of test [2] is nuclear β-catenin in C2C12 cells. Put plainly: cells. The format is cell-based. The following applies: concentration response; for WntCondMedia_bCatenin C2C12 IC50/EC50: assay number 5.
Test [3] concerns alkaline phosphatase (ALP) activity in C2C12 cells. It is filed as cell-based. The following applies: concentration response; for WntCondMedia_Alk Phos C2C12 IC50/EC50: assay number 6.
For test [4], the system named is HeLa cells. Put plainly: cells. The format is cell-based. The following applies: for Hela CellCycMod PI 2N IC50/EC50: assay number 14; for Hela CellCycMod PI 4N IC50/EC50: assay number 16; for Hela CellCycMod PI MI IC50/EC50: assay number 17; for Hela CellCycMod PI Cell Number IC50/EC50: assay number 18.
In test [5] the test system is DLD-1. Description: cells. It is filed as cell-based. The following applies: basal; for Basal_Viability ATP DLD-1 IC50/EC50: assay number 23.
Test [6] deals with SW480. Put plainly: cells. It is filed as cell-based. The following applies: basal; for Basal_Viability ATP SW480 IC50/EC50: assay number 24.
Test [7] relates to HCT116. Description: cells. The format is cell-based. The following applies: basal; for Basal_Viability ATP HCT116 IC50/EC50: assay number 25.
Test [8] relates to HCT116 cells treated with a GSK3β inhibitor. Put plainly: cells. The following applies: for GSK3b inh pretreated_Viability ATP HCT116 IC50/EC50: assay number 26, GSK3b inhibitor pretreated. The format is cell-based.
For test [9], the system named is Colo320. Description: cells. The following applies: basal; for Basal_Viability ATP Colo 320 IC50/EC50: assay number 27. The format is cell-based.
In test [10] the test system is HT-29. Description: cells. The format is cell-based. The following applies: basal; for Basal_Viability ATP HT-29 IC50/EC50: assay number 28.
The test system of test [11] is RKO. Put plainly: cells. The following applies: basal; for Basal_Viability ATP RKO IC50/EC50: assay number 29. The format is cell-based.
In test [12] the test system is SNU-C1. Description: cells. The format is cell-based. The following applies: basal; for Basal_Viability ATP SNU-C1 IC50/EC50: assay number 30.
Test [13] concerns the target T1, hp70S6K1 (RPS6KB1) (Homo sapiens, UniProt P23443).
T1 construct: purchased Cerep (LANCE kinase assay platform, contract assay)
Description: Cerep LANCE kinase assay hp70S6K1 (S1 assay 31). It is filed as biochemical. The following applies: for hp70S6K1 LANCE IC50/EC50: assay number 31.

Test [14] deals with T2, hKDR (Homo sapiens, UniProt P35968).
T2 construct: purchased Cerep (LANCE kinase assay platform, contract assay)
T2 sequence (P35968 20-1356): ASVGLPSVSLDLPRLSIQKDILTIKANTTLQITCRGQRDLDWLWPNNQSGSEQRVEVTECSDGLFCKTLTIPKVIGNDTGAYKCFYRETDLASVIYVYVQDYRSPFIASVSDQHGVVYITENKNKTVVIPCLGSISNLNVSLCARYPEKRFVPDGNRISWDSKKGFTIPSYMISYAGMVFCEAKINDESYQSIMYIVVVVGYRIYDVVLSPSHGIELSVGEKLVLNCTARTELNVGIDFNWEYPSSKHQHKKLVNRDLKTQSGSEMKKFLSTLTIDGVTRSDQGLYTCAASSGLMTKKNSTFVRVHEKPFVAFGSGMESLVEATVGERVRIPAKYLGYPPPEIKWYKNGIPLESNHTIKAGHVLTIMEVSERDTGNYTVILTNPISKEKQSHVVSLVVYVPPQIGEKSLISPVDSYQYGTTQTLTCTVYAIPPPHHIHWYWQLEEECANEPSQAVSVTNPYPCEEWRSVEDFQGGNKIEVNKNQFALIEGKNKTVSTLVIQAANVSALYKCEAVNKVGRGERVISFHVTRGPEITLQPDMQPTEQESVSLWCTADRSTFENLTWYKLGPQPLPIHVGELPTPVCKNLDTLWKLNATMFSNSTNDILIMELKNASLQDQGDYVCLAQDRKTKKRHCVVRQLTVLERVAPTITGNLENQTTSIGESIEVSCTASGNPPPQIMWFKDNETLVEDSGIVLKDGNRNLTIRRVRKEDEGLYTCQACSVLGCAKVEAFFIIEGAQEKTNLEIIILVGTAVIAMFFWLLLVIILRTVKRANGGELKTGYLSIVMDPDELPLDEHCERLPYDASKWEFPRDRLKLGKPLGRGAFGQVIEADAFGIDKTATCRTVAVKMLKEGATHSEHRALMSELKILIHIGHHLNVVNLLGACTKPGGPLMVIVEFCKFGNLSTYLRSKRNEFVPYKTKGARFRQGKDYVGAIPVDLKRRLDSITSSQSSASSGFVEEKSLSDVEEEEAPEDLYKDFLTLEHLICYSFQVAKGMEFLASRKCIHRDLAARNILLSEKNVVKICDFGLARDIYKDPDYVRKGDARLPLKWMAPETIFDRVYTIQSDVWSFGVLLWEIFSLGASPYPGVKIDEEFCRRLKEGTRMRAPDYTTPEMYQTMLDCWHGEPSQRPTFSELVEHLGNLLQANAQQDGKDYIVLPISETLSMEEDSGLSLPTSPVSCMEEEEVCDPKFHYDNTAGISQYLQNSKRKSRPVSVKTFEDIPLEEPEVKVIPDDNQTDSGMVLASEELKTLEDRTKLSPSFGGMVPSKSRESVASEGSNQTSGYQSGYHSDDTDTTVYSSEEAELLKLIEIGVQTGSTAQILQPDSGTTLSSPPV
Description: Cerep LANCE kinase assay hKDR (S1 assay 32). It is filed as biochemical. The following applies: for hKDR LANCE IC50/EC50: assay number 32.

The target in test [15] is T3, hJAK2 (Homo sapiens, UniProt O60674).
T3 construct: purchased Cerep (LANCE kinase assay platform, contract assay)
T3 sequence (O60674 whole entry): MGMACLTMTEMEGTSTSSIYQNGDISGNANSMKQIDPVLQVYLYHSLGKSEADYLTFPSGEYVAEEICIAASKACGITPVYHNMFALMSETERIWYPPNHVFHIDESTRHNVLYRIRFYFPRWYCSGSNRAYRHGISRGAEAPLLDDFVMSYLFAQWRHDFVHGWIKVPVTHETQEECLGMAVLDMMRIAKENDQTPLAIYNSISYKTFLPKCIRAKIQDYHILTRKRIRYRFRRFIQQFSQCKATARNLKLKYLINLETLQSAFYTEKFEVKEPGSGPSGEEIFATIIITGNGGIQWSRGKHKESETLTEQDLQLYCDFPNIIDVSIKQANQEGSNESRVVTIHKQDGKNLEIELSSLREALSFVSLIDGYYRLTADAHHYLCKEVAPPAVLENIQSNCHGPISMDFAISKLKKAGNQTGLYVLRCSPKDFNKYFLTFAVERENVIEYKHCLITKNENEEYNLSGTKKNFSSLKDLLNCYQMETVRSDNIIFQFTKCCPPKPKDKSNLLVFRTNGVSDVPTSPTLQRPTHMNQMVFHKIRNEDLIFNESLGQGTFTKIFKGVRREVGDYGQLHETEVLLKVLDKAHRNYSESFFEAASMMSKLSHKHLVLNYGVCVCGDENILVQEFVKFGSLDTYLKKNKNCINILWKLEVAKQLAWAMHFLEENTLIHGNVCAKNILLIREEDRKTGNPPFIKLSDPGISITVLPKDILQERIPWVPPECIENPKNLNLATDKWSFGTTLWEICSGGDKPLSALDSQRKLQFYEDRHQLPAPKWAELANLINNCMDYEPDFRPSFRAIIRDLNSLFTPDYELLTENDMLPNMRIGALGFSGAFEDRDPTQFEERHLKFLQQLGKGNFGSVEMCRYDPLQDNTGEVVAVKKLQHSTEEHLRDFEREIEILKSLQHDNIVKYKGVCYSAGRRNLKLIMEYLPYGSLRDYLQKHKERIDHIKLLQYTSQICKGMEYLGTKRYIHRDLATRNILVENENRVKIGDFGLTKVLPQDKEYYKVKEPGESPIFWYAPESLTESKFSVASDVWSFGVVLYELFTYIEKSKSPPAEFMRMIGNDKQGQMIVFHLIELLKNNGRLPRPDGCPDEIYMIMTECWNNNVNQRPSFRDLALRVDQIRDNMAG
Put plainly: Cerep LANCE kinase assay hJAK2 (S1 assay 33). The format is biochemical. The following applies: for hJAK2 LANCE IC50/EC50: assay number 33. (TR-FRET usually uses a lanthanide donor and a delayed reading to cut background.)

For test [16], the target named is T4, hGSK3b (Homo sapiens, UniProt P49841).
T4 construct: purchased Cerep (LANCE kinase assay platform, contract assay)
T4 sequence (P49841 whole entry): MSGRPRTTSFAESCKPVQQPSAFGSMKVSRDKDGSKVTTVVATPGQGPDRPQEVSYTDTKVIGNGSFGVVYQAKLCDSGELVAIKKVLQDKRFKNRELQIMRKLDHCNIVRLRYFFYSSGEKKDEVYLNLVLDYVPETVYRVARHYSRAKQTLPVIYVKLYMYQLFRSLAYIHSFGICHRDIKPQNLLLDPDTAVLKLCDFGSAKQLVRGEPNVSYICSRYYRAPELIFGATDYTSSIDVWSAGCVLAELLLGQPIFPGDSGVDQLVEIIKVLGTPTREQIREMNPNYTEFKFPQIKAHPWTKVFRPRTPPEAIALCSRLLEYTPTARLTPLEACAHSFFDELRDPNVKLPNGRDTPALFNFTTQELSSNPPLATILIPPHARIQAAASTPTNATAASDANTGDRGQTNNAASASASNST
Description: Cerep LANCE kinase assay hGSK3b (S1 assay 34). The format is biochemical. The following applies: for hGSK3b LANCE IC50/EC50: assay number 34.

Test [17] concerns the target T5, hFLT3 (Homo sapiens, UniProt P36888).
T5 construct: purchased Cerep (LANCE kinase assay platform, contract assay)
Description: Cerep LANCE kinase assay hFLT3 (S1 assay 35). The format is biochemical. The following applies: for hFLT3 LANCE IC50/EC50: assay number 35.

In test [18] the test system is ECFC/ADSC co-culture cell nuclei number.

T5 sequence (P36888 27-993): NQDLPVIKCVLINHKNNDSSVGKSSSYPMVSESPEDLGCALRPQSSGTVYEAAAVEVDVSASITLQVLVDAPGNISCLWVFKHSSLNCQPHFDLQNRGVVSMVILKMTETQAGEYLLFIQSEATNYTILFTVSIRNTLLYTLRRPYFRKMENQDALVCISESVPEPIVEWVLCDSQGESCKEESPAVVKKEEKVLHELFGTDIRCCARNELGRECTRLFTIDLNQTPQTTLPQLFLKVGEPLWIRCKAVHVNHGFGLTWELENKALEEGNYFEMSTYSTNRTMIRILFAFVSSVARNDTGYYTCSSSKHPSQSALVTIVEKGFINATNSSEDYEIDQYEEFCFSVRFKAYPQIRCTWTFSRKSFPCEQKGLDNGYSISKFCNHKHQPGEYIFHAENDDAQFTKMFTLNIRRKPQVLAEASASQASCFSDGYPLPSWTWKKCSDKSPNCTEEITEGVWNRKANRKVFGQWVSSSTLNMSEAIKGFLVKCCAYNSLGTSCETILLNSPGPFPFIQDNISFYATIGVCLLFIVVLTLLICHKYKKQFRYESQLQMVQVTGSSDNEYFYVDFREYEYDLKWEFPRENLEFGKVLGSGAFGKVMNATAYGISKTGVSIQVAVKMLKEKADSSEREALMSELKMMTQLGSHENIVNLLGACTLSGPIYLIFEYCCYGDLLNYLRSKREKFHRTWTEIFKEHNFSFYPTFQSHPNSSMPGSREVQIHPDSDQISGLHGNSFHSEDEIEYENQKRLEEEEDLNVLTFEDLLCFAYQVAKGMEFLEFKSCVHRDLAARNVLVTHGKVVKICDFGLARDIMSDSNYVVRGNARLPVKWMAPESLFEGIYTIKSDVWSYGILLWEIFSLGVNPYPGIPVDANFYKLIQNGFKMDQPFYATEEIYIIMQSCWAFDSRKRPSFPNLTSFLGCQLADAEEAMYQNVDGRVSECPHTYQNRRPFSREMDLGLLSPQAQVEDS
T1 sequence (P23443 whole entry): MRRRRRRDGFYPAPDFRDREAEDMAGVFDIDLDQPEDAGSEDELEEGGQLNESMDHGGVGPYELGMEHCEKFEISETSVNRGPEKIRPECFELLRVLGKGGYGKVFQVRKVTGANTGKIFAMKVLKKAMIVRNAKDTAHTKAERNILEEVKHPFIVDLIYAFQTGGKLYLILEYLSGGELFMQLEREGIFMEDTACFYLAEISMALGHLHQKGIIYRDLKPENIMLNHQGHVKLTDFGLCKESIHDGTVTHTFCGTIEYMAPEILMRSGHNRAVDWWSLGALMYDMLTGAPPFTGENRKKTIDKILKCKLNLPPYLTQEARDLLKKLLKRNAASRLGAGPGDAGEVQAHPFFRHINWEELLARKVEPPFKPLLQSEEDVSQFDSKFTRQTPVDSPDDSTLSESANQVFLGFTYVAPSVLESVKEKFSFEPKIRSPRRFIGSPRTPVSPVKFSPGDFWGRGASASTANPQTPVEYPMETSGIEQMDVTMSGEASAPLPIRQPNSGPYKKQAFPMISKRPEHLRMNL

Consider `O=C1c2c(O)ccc(O)c2C(=O)c2c(NCCNCCO)ccc(NCCNCCO)c21` [NCGC00015693-09], for which the “VEGF_ADSC\ECFC Angio CD31 TubeArea IC50/EC50” value in [1] was determined as 0.0044 µM. Further, the “WntCondMedia_bCatenin C2C12 IC50/EC50” value in test [2] was 0.0303 µM. Also, the “WntCondMedia_Alk Phos C2C12 IC50/EC50” value in test [3] is recorded as 1.509 µM. Further, in test [4] (2N), the “Hela CellCycMod PI 2N IC50/EC50” value is greater than 10 µM. Also, the “Hela CellCycMod PI S Phase IC50/EC50” value in test [4] (assay number 15, S phase) is given as greater than 10 µM. Besides, the “Hela CellCycMod PI 4N IC50/EC50” value in [4] (4N) was greater than 10 µM. The “Hela CellCycMod PI MI IC50/EC50” value in [4] (MI) is given as greater than 10 µM. Further, in [4], the “Hela CellCycMod PI Cell Number IC50/EC50” value is 0.0031 µM. Besides, the “Basal_Viability ATP DLD-1 IC50/EC50” value in test [5] was 1.6038 µM. Further, the “Basal_Viability ATP SW480 IC50/EC50” value in [6] came to 1.8306 µM. For the same compound, the “Basal_Viability ATP HCT116 IC50/EC50” value in test [7] is given as 1.2335 µM. For the same compound, the “GSK3b inh pretreated_Viability ATP HCT116 IC50/EC50” value in [8] was found to be 0.001 µM. For the same compound, in test [9], the “Basal_Viability ATP Colo 320 IC50/EC50” value is listed as 7.4079 µM. The “Basal_Viability ATP HT-29 IC50/EC50” value in test [10] is recorded as 7.591 µM. Further, in [11], the “Basal_Viability ATP RKO IC50/EC50” value came out at 1.0291 µM. Besides, the “Basal_Viability ATP SNU-C1 IC50/EC50” value in test [12] is 1.718 µM. The “hp70S6K1 LANCE IC50/EC50” value in test [13] is recorded as greater than 20 µM. In test [14], the “hKDR LANCE IC50/EC50” value was greater than 20 µM. The “hJAK2 LANCE IC50/EC50” value in test [15] is reported as greater than 20 µM. In addition, the “hGSK3b LANCE IC50/EC50” value in test [16] was greater than 20 µM. For the same compound, the “hFLT3 LANCE IC50/EC50” value in test [17] is recorded as greater than 20 µM. Besides, the “VEGF_ADSC\ECFC Angio Hoechst NucArea IC50/EC50” value in test [18] was determined as 0.01274 µM.

With `CCCSc1ccc2nc(NC(=O)OC)[nH]c2c1` [NCGC00016876-12], the “IC50/EC50, VEGF_ADSC\ECFC Angio CD31 TubeArea (assay number 2)” value in test [1] amounted to 0.3554 µM. Also, the “IC50/EC50, WntCondMedia_bCatenin C2C12 (assay number 5)” value in [2] is 1.2764 µM. Besides, the “IC50/EC50, WntCondMedia_Alk Phos C2C12 (assay number 6)” value in test [3] turned out to be 12.2685 µM. In addition, the “IC50/EC50, Hela CellCycMod PI 2N (assay number 14)” value in test [4] (2N) came out at 0.0656 µM. Further, the “IC50/EC50, Hela CellCycMod PI 4N (assay number 16)” value in [4] (4N) was 0.0612 µM. In test [4] (Cell Number), the “IC50/EC50, Hela CellCycMod PI Cell Number (assay number 18)” value worked out at 0.0377 µM. Moreover, the “IC50/EC50, Hela CellCycMod PI MI (assay number 17)” value in test [4] (MI) is 0.0615 µM. In [4] (S Phase), the “IC50/EC50, Hela CellCycMod PI S Phase (assay number 15)” value is greater than 10 µM. For the same compound, the “IC50/EC50, Basal_Viability ATP DLD-1 (assay number 23)” value in test [5] was found to be 0.1085 µM. In addition, in test [6], the “IC50/EC50, Basal_Viability ATP SW480 (assay number 24)” value is listed as greater than 20 µM. Moreover, the “IC50/EC50, Basal_Viability ATP HCT116 (assay number 25)” value in test [7] is given as 0.1118 µM. Further, in test [8] (GSK3b inh pretreated), the “IC50/EC50, GSK3b inh pretreated_Viability ATP HCT116 (assay number 26)” value was 0.1579 µM. The “IC50/EC50, Basal_Viability ATP Colo 320 (assay number 27)” value in [9] stood at 0.502 µM. Further, the “IC50/EC50, Basal_Viability ATP HT-29 (assay number 28)” value in test [10] is on record as greater than 20 µM. Further, the “IC50/EC50, Basal_Viability ATP RKO (assay number 29)” value in test [11] was 0.1653 µM. Moreover, the “IC50/EC50, Basal_Viability ATP SNU-C1 (assay number 30)” value in test [12] is recorded as greater than 20 µM. In addition, the “IC50/EC50, hp70S6K1 LANCE (assay number 31)” value in test [13] is reported as greater than 20 µM. In [14], the “IC50/EC50, hKDR LANCE (assay number 32)” value was greater than 20 µM. Further, in test [15], the “IC50/EC50, hJAK2 LANCE (assay number 33)” value is reported as greater than 20 µM. The “IC50/EC50, hGSK3b LANCE (assay number 34)” value in test [16] is recorded as greater than 20 µM. The “IC50/EC50, hFLT3 LANCE (assay number 35)” value in test [17] is on record as greater than 20 µM. Also, the “IC50/EC50, VEGF_ADSC\ECFC Angio Hoechst NucArea (assay number 3)” value in [18] is reported as greater than 10 µM.

As to `Cc1cc(C2CCCCC2)n(O)c(=O)c1.NCCO` [NCGC00017112-10], the “VEGF_ADSC\ECFC Angio CD31 TubeArea IC50/EC50” value in [1] is recorded as greater than 10 µM. The “WntCondMedia_bCatenin C2C12 IC50/EC50” value in [2] was greater than 20 µM. The “WntCondMedia_Alk Phos C2C12 IC50/EC50” value in test [3] stood at 1.0476 µM. Moreover, the “Hela CellCycMod PI 2N IC50/EC50” value in [4] (2N) is greater than 10 µM. Besides, in test [4] (4N), the “Hela CellCycMod PI 4N IC50/EC50” value is given as greater than 10 µM. Further, the “Hela CellCycMod PI MI IC50/EC50” value in test [4] (MI) is reported as greater than 10 µM. Moreover, the “Hela CellCycMod PI Cell Number IC50/EC50” value in test [4] was 0.5693 µM. Also, in test [5], the “Basal_Viability ATP DLD-1 IC50/EC50” value worked out at 0.316 µM. Besides, the “Basal_Viability ATP SW480 IC50/EC50” value in test [6] is reported as 0.469 µM. Further, in [7], the “Basal_Viability ATP HCT116 IC50/EC50” value came out at 0.6557 µM. For the same compound, in test [8], the “GSK3b inh pretreated_Viability ATP HCT116 IC50/EC50” value is reported as 0.3898 µM. For the same compound, in test [9], the “Basal_Viability ATP Colo 320 IC50/EC50” value was 0.2084 µM. The “Basal_Viability ATP HT-29 IC50/EC50” value in test [10] was 7.035 µM. Besides, the “Basal_Viability ATP RKO IC50/EC50” value in [11] stood at 0.2329 µM. Also, the “Basal_Viability ATP SNU-C1 IC50/EC50” value in test [12] is recorded as greater than 20 µM. Besides, the “hp70S6K1 LANCE IC50/EC50” value in test [13] is greater than 20 µM. Also, in [14], the “hKDR LANCE IC50/EC50” value is on record as greater than 20 µM. For the same compound, the “hJAK2 LANCE IC50/EC50” value in test [15] was greater than 20 µM. Also, the “hGSK3b LANCE IC50/EC50” value in test [16] is given as greater than 20 µM. For the same compound, the “hFLT3 LANCE IC50/EC50” value in test [17] is recorded as greater than 20 µM. The “VEGF_ADSC\ECFC Angio Hoechst NucArea IC50/EC50” value in [18] is given as greater than 10 µM.
